Data taken from patent US20220226338A1, “Methods of Treating Cancer Using CHK1 Inhibitors” (Sierra Oncology, Inc., priority 2019, published 2022).

Legend:
[1] = tested on: plasma protein; assay: Plasma protein binding, ultracentrifugation, mouse plasma; type: in vitro ADME; details: for Percentage Bound / Percentage Free: Mouse plasma
Description: (§1) The PK of SRA737 have been determined in the mouse, rat, dog and monkey following oral and IV administration (Table 3). […] An acceptable terminal elimination t1/2 was also observed in each species. […] The plasma protein binding of SRA737 at 1 and 10 μM was examined in mouse, minipig, monkey and human plasma using ultracentrifugation and in dog plasma (10 μM) using rapid equilibrium dialysis.

[2] = Excretion in urine and feces, rats; type: in vivo; details: rat, over 24 hours
Description: The excretion of SRA737 has been studied in mice and rats administered SRA737 at either 5 mg/kg IV or 10 mg/kg orally. Urine and feces were collected for a 24-hour period after dosing. In mice, renal excretion of intact SRA737 was consistently low (less than 10% of dose) after both oral and IV administration. Following IV administration of SRA737, less than 8% of the dose was recovered as intact drug in the feces while after oral administration this figure was less than 3%. Excretion of intact SRA737 was lower in the rat than in the mouse with <1% of dose excreted renally over 24 hours and less than 1.5% of dose excreted into the feces over 24 hours.

[3] = Parallel artificial membrane permeability assay (PAMPA); type: in vitro ADME
Description: The membrane permeability of SRA737 was assessed in the parallel artificial membrane permeability assay (PAMPA) and Caco-2 assays. Permeability in the PAMPA assay was classified as low.

[4] = tested on: cryopreserved hepatocytes; assay: Stability in cryopreserved minipig hepatocytes; type: in vitro ADME; details: 10 μM, after 4 hours of incubation
Description: (§2) The formation of SRA737-related metabolites was determined in cryopreserved hepatocytes from human, mouse, rat, dog, minipig and monkey samples after incubation with SRA737 at a nominal concentration of 10 μM for up to 4 hours. […] In the human hepatocyte preparation, approximately 67% of the parent remained after 4 hours of incubation compared to 75% and 7% in the rat and minipig preparations, respectively. Eight human SRA737 metabolites were observed. All SRA737 metabolites formed by human hepatocytes were also formed by monkey hepatocytes. Six metabolites were present at equal or greater abundance in the monkey.

[5] = Three-cycle combination toxicity study with gemcitabine and cisplatin; type: in vivo, mouse; details: mice; SRA737 with IV gemcitabine and cisplatin, intermittent schedule over 18 days; high dose triplet group
From the text: Clinical combination of SRA737 and gemcitabine in some cases therefore elicited exacerbated hematological and GI toxicities.

[6] = tested on: cryopreserved hepatocytes; assay: Stability in cryopreserved rat hepatocytes; type: in vitro ADME; details: 10 μM, after 4 hours of incubation
Description: as §2

[7] = Single dose PK, dog; type: in vivo; details: Dog oral 5 mg/kg single dose
From the text: (§3) Several studies have been conducted to evaluate the PK properties of SRA737, such as the absorption (in vitro permeability assays and in vivo PK following IV and oral administration), distribution (in vivo tissue distribution and in vitro plasma protein binding) and metabolism (in vitro hepatocyte and CYP inhibition and induction studies) of SRA737.
as §1

[8] = Single dose PK, mouse; type: in vivo; details: Mouse oral 10 mg/kg single dose
From the text: as §3, §1

[9] = GLP 28-day repeat oral dose toxicity and toxicokinetics, minipig; type: in vivo
Description: Reference source not found.6.
These findings were reversible on cessation of drug administration.
The MTD was 75 mg/kg/day (225 mg/m^2/day) in the mouse and the HNSTD was […] (350 mg/m^2/day) in the minipig.

[10] = tested on: cryopreserved hepatocytes; assay: Stability and metabolites in cryopreserved human hepatocytes; type: in vitro ADME
Description: as §2

[11] = SRA737 monotherapy clinical study (SRA737-01), safety and tolerability; type: in vivo
Description: A Phase 1 clinical trial was conducted in ‘all comers,’ i.e. no genetic selection was performed, to establish safety, tolerability and pharmacokinetics (“Dose Escalation Phase”). Cohorts consisting initially of a single subject received escalating doses of SRA737, starting in Cohort 1 with 20 mg/day administered orally on a continuous daily dosing schedule in 28 day cycles. the dose was escalated until the maximum tolerated dose (MTD) was identified.
In the Dose Escalation Phase, 18 subjects received SRA737 in 9 dose level cohorts, from 20 to 1300 mg QD; median treatment duration 62.5 days (range 1 to 226). […] Two of 3 subjects experienced DLTs at the 1300 mg once daily dose, each being an inability to receive 75% of the planned SRA737 dose due to GI intolerability, with the individual GI effects being low grade. […] A cohort receiving 500 mg twice daily was added to determine if a twice daily dosing schedule can improve GI tolerability, given the half-life of SRA737 is approximately 10 hours. One of 6 subjects experienced DLTs in the 500 mg twice daily cohort; this was an inability to receive 75% of the planned SRA737 dose due to grade 4 thrombocytopenia with grade 3 neutropenia and anemia.
A Dose Escalation phase employed an accelerated titration design starting at 20 mg SRA737, administered QD orally in 28-day cycles. Incremental dose escalations in single-subject cohorts were followed by a rolling-6 design once SRA737-related ≥Grade 2 toxicity was observed during Cycle 1.
Dose limiting toxicities (DLTs) were assessed following a pharmacokinetic (PK) lead-in dose, and throughout Cycle 1 of treatment, and were defined as adverse events highly probably or probably related to SRA737: grade ≥4 neutropenia or thrombocytopenia lasting >7 days, grade ≥3 febrile neutropenia or thrombocytopenia with bleeding, grade ≥3 non-hematologic toxicity, or the inability to receive ≥75% of the planned SRA737 dose in Cycle 1 due to drug-related toxicity.

N#Cc1cnc(Nc2cc(NCC3CNCCO3)c(C(F)(F)F)cn2)cn1 (stereo not shown) [SRA737, 5-[[4-[[morpholin-2-yl]methylamino]-5-(trifluoromethyl)-2-pyridyl]amino]pyrazine-2-carbonitrile]
Percentage Bound ([1]; 1 μM): 94.5% | Percentage Free ([1]; 1 μM): 5.5% | Percentage Bound ([1]; 10 μM): 93.4% | Percentage Free ([1]; 10 μM): 6.6% | plasma protein binding ([1]; mouse): ~94% | intact SRA737 excreted into the feces [2]: less than 1.5 % of dose | intact SRA737 excreted renally [2]: < 1 % of dose | permeability in the PAMPA assay [3]: low | parent remaining [4]: 7% | additional finding in triple combination study [5]: reversible intestinal epithelial degeneration | parent remaining [6]: 75% | Foral [7]: 86% | Foral [8]: 105% | changes in reproductive organs ([9]; minipig): changes in reproductive organs, particularly the testes, were also observed | toxicological findings in the GI tract ([9]; minipig): Toxicological findings in the GI tract were also observed | dose-dependent toxicological findings ([9]; minipig pivotal study, reversible on cessation of drug administration): bone marrow toxicity | number of human SRA737 metabolites observed [10]: Eight | parent remaining ([10]; 10 μM, after 4 hours of incubation): approximately 67% | AST increased ([11]; human, in vivo): 3% | TEAEs mild to moderate in severity (Grade 1/Grade 2) ([11]; human, in vivo): 90% | abdominal pain ([11]; human, in vivo): 3% | abdominal pain upper ([11]; human, in vivo): 3% | diarrhea, most common TEAEs ([11]; human, in vivo): 68% | disease progression ([11]; human, in vivo): 8% | dose-limiting toxicities (DLTs) ([11]; human, in vivo): without any dose-limiting toxicities | dyspnea ([11]; human, in vivo): 3% | emergent or cumulative toxicity and/or declining tolerability ([11]; human, in vivo): No evidence of emergent or cumulative toxicity and/or declining tolerability | fatigue ([11]; human, in vivo): 3% | fatigue, most common TEAEs ([11]; human, in vivo): 47% | hyponatremia ([11]; human, in vivo): 4% | infection ([11]; human, in vivo): 4% | lymphocyte count decreased ([11]; human, in vivo): 5% | nausea ([11]; human, in vivo): 3% | nausea, most common TEAEs ([11]; human, in vivo): 66% | neutropenia ([11]; human, in vivo): 8% | pleural effusion ([11]; human, in vivo): 3% | rash maculo-papular ([11]; human, in vivo): 3% | recommended monotherapy dose ([11]; human, in vivo): 800 mg/day | subjects with at least one SRA737-related event ([11]; human, in vivo): 91% | tolerability of 800 mg once daily ([11]; human, in vivo): overall better tolerated than 1000 mg | vomiting, most common TEAEs ([11]; human, in vivo): 51% | subjects experiencing DLTs ([11]; human, in vivo, 28 days): 3 subjects | maximum tolerated dose (MTD) ([11]; monotherapy): 1000 mg/day | recommended dose for expansion cohorts (RP2D) ([11]; monotherapy): 800 mg QD | relatedness of Grade 5 TEAEs ([11]; monotherapy): none were considered related to SRA737 | subjects with treatment-emergent adverse events (TEAEs) ([11]; monotherapy): 106 (99%) n (%) | maximum tolerated dose (MTD) ([11]; monotherapy, once daily): 1000 mg QD | maximum tolerated dose (MTD) ([11]; monotherapy, twice daily): 500 mg BID | number of Grade 5 TEAEs ([11]; monotherapy, up to 30-days post last treatment): Six
